The experiment has as its target human GPR40 receptor (Homo sapiens, UniProt O14842). Description: IP1 accumulation measurements using the IPOne assay system. The experiment is classed as cell-based. As to conditions: 1321N1 cells stably expressing human GPR40; stimulation 1 h at 37° C. Here is the method:
IP1 accumulation measurements using the IPOne assay system—1321N1 cells stably expressing human GPR40 receptor (Euroscreen, Belgium) are seeded 24 h before the assay in white 384-well plates in culture medium containing 10% FCS, 1% Na-Pyruvate and 400 μg/mL G418. IP1 is assayed according to the manufacturer's description (Cisbio Bioassays, France). In brief, the assay is started by substitution of the culture medium by stimulation buffer (Hepes 10 mM, CaCl2 1 mM, MgCl2 0.5 mM, KCl 4.2 mM, NaCl 146 mM, glucose 5.5 mM and LiCl 50 mM, pH 7.4). Cells are stimulated for 1 h at 37° C., 5% CO2 by addition of the compounds that are diluted in stimulation buffer containing LiCl. Assays are stopped by adding HTRF-conjugates (IP1-d2 and Anti-IP1 cryptate Tb) and lysis buffer, provided by the manufacturer. After an incubation time of 1 h at room temperature plates are measured using an EnVision™, Perkin Elmer. The obtained fluorescence ratios at 665/615 […] are then used to calculate the pEC50 values using Assay Explorer 3.3 Software (Accelrys, Inc.) by interpolation using an IP1 reference curve and subsequent sigmoidal curve fitting allowing for a variable hill slope.
Sequence of human GPR40 receptor (O14842 whole entry): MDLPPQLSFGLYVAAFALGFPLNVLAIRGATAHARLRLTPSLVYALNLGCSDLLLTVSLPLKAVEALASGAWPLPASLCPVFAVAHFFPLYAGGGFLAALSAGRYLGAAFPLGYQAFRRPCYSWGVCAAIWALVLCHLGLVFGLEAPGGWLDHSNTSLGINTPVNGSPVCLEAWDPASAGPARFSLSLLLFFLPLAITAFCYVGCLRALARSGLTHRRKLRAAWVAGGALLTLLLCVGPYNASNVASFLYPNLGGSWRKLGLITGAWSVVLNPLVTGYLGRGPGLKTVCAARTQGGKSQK
Regarding `O=C(O)C[C@@H]1COc2cc(O[C@@H]3CCc4c(Oc5cccnc5)ccc(F)c43)ccc21` [Example 6, {(S)-6-[(R)-7-Fluoro-4-pyrid-3-yloxy-indan-1-yloxy]-2,3-dihydro-benzofuran-3-yl}-acetic acid], the EC50 (in general, the concentration needed to bring the measured effect to its halfway point) was determined as 33 nM.

Take `Cc1cc(Oc2ccc(F)c3c2CC[C@H]3Oc2ccc3c(c2)OC[C@H]3CC(=O)O)ccc1C#N` [Example 21, {(S)-6-[(R)-4-(4-Cyano-3-methyl-phenoxy)-7-fluoro-4-indan-1-yloxy]-2,3-dihydro-benzofuran-3-yl}-acetic acid]: the midpoint of the response, the EC50, lay at 4 nM.

`Cc1noc2cc(Oc3ccc(F)c4c3CC[C@H]4Oc3ccc4c(c3)OC[C@H]4CC(=O)O)ccc12` [Example 61, {(S)-6-[(R)-7-Fluoro-4-(3-methyl-benzo[d]isoxazol-6-yloxy)-indan-1-yloxy]-2,3-dihydro-benzofuran-3-yl}-acetic acid] came in with a concentration for a half-maximal effect (EC50) of 3 nM.

For `Cn1ccc2cc(Oc3ccc(F)c4c3CC[C@H]4Oc3ccc4c(c3)OC[C@H]4CC(=O)O)ccc21` [Example 38, {(S)-6-[(R)-7-Fluoro-4-(1-methyl-1H-indol-5-yloxy)-indan-1-yloxy]-2,3-dihydro-benzofuran-3-yl}-acetic acid], the EC50 was found to be 6 nM.

`N#Cc1ccc(Oc2ccc(F)c3c2CC[C@H]3Oc2ccc3c(c2)OC[C@H]3CC(=O)O)cc1F` [Example 29, {(S)-6-[(R)-4-(4-Cyano-3-fluoro-phenoxy)-7-fluoro-indan-1-yloxy]-2,3-dihydro-benzofuran-3-yl}-acetic acid] displayed a concentration giving a half-maximal response (EC50) of 6 nM.

The compound `Cn1ncc2cc(Oc3ccc(F)c4c3CC[C@H]4Oc3ccc4c(c3)OC[C@H]4CC(=O)O)ccc21` [Example 45, {(S)-6-[(R)-7-Fluoro-4-(1-methyl-1H-indazol-5-yloxy)-indan-1-yloxy]-2,3-dihydro-benzofuran-3-yl}-acetic acid] had an EC50 of 7 nM.

Regarding `COc1c(F)cc(Oc2ccc(F)c3c2CC[C@H]3Oc2ccc3c(c2)OC[C@H]3CC(=O)O)cc1F` [Example 57, {(S)-6-[(R)-4-(3,5-Difluoro-4-methoxy-phenoxy)-7-fluoro-indan-1-yloxy]-2,3-dihydro-benzofuran-3-yl}-acetic acid], the EC50 is 7 nM.

Source of the values: patent US8815864B2, “Indanyloxydihydrobenzofuranylacetic acids” (Boehringer Ingelheim International GmbH, priority 2012, dated 2014).
